In data set [1] the test system is SARS-CoV-2. Nature of the data set: Antiviral activity against SARS-Cov-2 infected in african green monkey Vero E6 cells assessed as inhibition of viral replication pretreated with compound for 1 hr followed by viral infection for 2 hrs measured after 24 hrs post infection by qRt-PCR analysis. The format is functional, organism-based. To be noted: Severe acute respiratory syndrome coronavirus 2, Vero C1008.

The test system of data set [2] is SARS-CoV-2. Nature of the data set: Antiviral activity against SARS-Cov-2 infected in african green monkey Vero E6 cells assessed as inhibition of viral replication pretreated with compound for 1 hr followed by viral infection for 2 hrs measured after 24 hrs post infection in presence of wallichins C by qRt-PCR analysis. To be noted: Severe acute respiratory syndrome coronavirus 2, Vero C1008. The format is functional, organism-based.

Data set [3] is described as follows: Cytotoxicity against African green monkey Vero E6 cells by CCK-8 assay. The format is toxicity, cell-based, Vero C1008. To be noted: chlorocebus sabaeus. Background: Tetrazolium assays rely on reduction of a dye to a coloured formazan, in cell work by metabolically active cells.
A short description of data set [4]: Cytotoxicity against African green monkey Vero E6 cells in presence of wallichins C by CCK-8 assay. The format is toxicity, cell-based, Vero C1008. To be noted: chlorocebus sabaeus.
A short description of data set [5]: Selectivity index, ratio for CC50 of African green monkey Vero E6 cells to EC50 for SARS-Cov-2 infected in african monkey Vero E6 cells. The format is toxicity, Vero C1008. To be noted: read-out: Selectivity Index.
A short description of data set [6]: Selectivity index, ratio of CC50 for African green monkey Vero cells in presence of […] to EC50 for SARS-Cov-2 infected in african green monkey Vero E6 cells assessed as inhibition of viral replication in presence of wallichins C. The format is toxicity, Vero C1008. To be noted: read-out: Selectivity Index.
The subject of data set [7] is SARS-CoV-2. The data set is described as follows: Antiviral activity against SARS-Cov-2 infected in human Calu-3 cells assessed as inhibition of viral replication pretreated with compound for 1 hr followed by viral infection for 2 hrs measured after 24 hrs post infection by qRt-PCR analysis. To be noted: Severe acute respiratory syndrome coronavirus 2, Calu-3. The format is functional, organism-based.

In data set [8] the test system is SARS-CoV-2. Nature of the data set: Antiviral activity against SARS-Cov-2 infected in human Calu-3 cells assessed as inhibition of viral replication pretreated with compound for 1 hr followed by viral infection for 2 hrs measured after 24 hrs post infection in presence of wallichins C by qRt-PCR analysis. The format is functional, organism-based. Particulars: Severe acute respiratory syndrome coronavirus 2, Calu-3.

Data set [9] can be described thus: Cytotoxicity against human Calu-3 cells by CCK-8 assay. The format is toxicity, cell-based.
A short description of data set [10]: Cytotoxicity against human Calu-3 cells in presence of wallichins C by CCK-8 assay. The format is toxicity, cell-based.
Data set [11] deals with T1, Replicase polyprotein 1ab (Severe acute respiratory syndrome coronavirus 2, UniProt P0DTD1). The data set is described as follows: Binding affinity to SARS-CoV-2 3CL protease at 1.875 to 50 uM by SPR assay. A general note: SPR reads the build-up and loss of mass on a sensor chip optically.
Data set [12] addresses T1, Replicase polyprotein 1ab. The data set is described as follows: Binding affinity to SARS-CoV-2 3CL protease at 1.875 to 50 uM in presence of wallichins C by SPR assay.
The target in data set [13] is T1, Replicase polyprotein 1ab. Nature of the data set: Inhibition of SARS-CoV-2 3CL protease using MCA-AVLQSGFR-Lys(Dnp)-Lys-NH2 as flurogenic substrate pre-incubated with compound for 10 mins followed by substrate addition measured after 10 mins by FRET assay.
Data set [14] has as its target T1, Replicase polyprotein 1ab. Nature of the data set: Inhibition of SARS-CoV-2 3CL protease using MCA-AVLQSGFR-Lys(Dnp)-Lys-NH2 as flurogenic substrate pre-incubated with compound for 10 mins followed by substrate addition measured after 10 mins in presence of wallichins C by FRET assay.
Data set [15] has as its target T2, Spike glycoprotein (Severe acute respiratory syndrome coronavirus 2, UniProt P0DTC2). Nature of the data set: Binding affinity to SARS-CoV-2 Spike glycoprotein receptor-binding domain at 1.875 to 50 uM by SPR assay.
In data set [16] the test system is SARS-CoV-2. Nature of the data set: Antiviral activity against SARS CoV-2 VSV-delG pseudotype infected in african green monkey Vero E6 at 100 uM measured after 15 hrs post infection relative to control. The format is functional. Particulars: Severe acute respiratory syndrome coronavirus 2, Vero C1008.
Data set [17] concerns SARS-CoV-2. Nature of the data set: Antiviral activity against SARS-Cov-2 infected in african green monkey Vero E6 cells assessed as inhibition of viral replication at 10 uM pretreated with compound for 1 hr followed by viral infection for 2 hrs measured after 24 hrs post infection in presence of wallichins C by qRt-PCR analysis relative to control. The format is functional. To be noted: Severe acute respiratory syndrome coronavirus 2, Vero C1008, time 27 hrs.

The target of data set [18] is T2, Spike glycoprotein. Nature of the data set: Binding affinity to SARS-CoV-2 Spike glycoprotein receptor-binding domain at 1.875 to 50 uM in presence of wallichins C by SPR assay.
Data set [19] deals with SARS-CoV-2. The data set is described as follows: Antiviral activity against SARS-Cov-2 infected in african green monkey Vero E6 cells assessed as inhibition of viral replication pretreated with compound for 1 hr followed by viral infection for 2 hrs measured after 24 hrs post infection in presence of wallichins D by qRt-PCR analysis. The format is functional, organism-based. To be noted: Severe acute respiratory syndrome coronavirus 2, Vero C1008.

Data set [20] in a line: Cytotoxicity against African green monkey Vero E6 cells in presence of wallichins D by CCK-8 assay. To be noted: chlorocebus sabaeus. The format is toxicity, cell-based, Vero C1008.
The nature of data set [21]: Selectivity index, ratio of CC50 for African green monkey Vero cells in presence of wallichins D to EC50 for SARS-Cov-2 infected in african green monkey Vero E6 cells assessed as inhibition of viral replication in presence of wallichins D. The format is toxicity, Vero C1008. To be noted: read-out: Selectivity Index.
Data set [22] has as its system SARS-CoV-2. The data set is described as follows: Antiviral activity against SARS-Cov-2 infected in human Calu-3 cells assessed as inhibition of viral replication pretreated with compound for 1 hr followed by viral infection for 2 hrs measured after 24 hrs post infection in presence of wallichins D by qRt-PCR analysis. The format is functional, organism-based. Particulars: Severe acute respiratory syndrome coronavirus 2, Calu-3.

Data set [23] in a line: Cytotoxicity against human Calu-3 cells in presence of wallichins D by CCK-8 assay. The format is toxicity, cell-based.
For data set [24], the target named is T1, Replicase polyprotein 1ab. Nature of the data set: Binding affinity to SARS-CoV-2 3CL protease at 1.875 to 50 uM in presence of wallichins D by SPR assay.
The target in data set [25] is T1, Replicase polyprotein 1ab. Nature of the data set: Inhibition of SARS-CoV-2 3CL protease using MCA-AVLQSGFR-Lys(Dnp)-Lys-NH2 as flurogenic substrate pre-incubated with compound for 10 mins followed by substrate addition measured after 10 mins in presence of wallichins D by FRET assay.
Data set [26] relates to SARS-CoV-2. Nature of the data set: Antiviral activity against SARS-Cov-2 infected in african green monkey Vero E6 cells assessed as inhibition of viral replication at 10 uM pretreated with compound for 1 hr followed by viral infection for 2 hrs measured after 24 hrs post infection in presence of wallichins D by qRt-PCR analysis relative to control. The format is functional. To be noted: Severe acute respiratory syndrome coronavirus 2, Vero C1008, time 27 hrs.

Data set [27] addresses T2, Spike glycoprotein. Nature of the data set: Binding affinity to SARS-CoV-2 Spike glycoprotein receptor-binding domain at 1.875 to 50 uM in presence of wallichins D by SPR assay.
Data set [28] relates to SARS-CoV-2. Nature of the data set: Antiviral activity against SARS-Cov-2 infected in african green monkey Vero E6 cells assessed as inhibition of viral replication at 10 uM pretreated with compound for 1 hr followed by viral infection for 2 hrs measured after 24 hrs post infection by qRt-PCR analysis relative to control. Particulars: Severe acute respiratory syndrome coronavirus 2, Vero C1008, time 27 hrs. The format is functional.

This is an account of results in ChEMBL document CHEMBL5131463, “Target-Based Virtual Screening and LC/MS-Guided Isolation Procedure for Identifying Phloroglucinol-Terpenoid Inhibitors of SARS-CoV-2” (J Nat Prod, 2022).

pEC50, pIC50, pKd: −log10 of the molar value.

One may read the pEC50 as the negative decadic logarithm of the EC50, by convention in mol/L. As usually defined, the CC50 is the concentration at which the toxic effect on the cells reaches its halfway point. A word on the pKd: it is −log10 of the Kd, conventionally taken in molar units. Usually pIC50 stands for the IC50 on a negative log10 scale, so that one unit is a factor of ten. The term inhibition in vivo denotes the drop in the measured response relative to a control, in per cent. By inhibition is commonly meant the drop in the measured response relative to a control, in per cent. With `C=C1CC[C@H]2[C@@](C)(CCC[C@]2(C)C(=O)O)[C@@H]1C/C=C(\C)[C@H]1CCc2c(O)c(CC3C(=O)C(C(C)=O)=C(O)C(C)(C)C3O)c(O)c(C(=O)CCC)c2O1` (some centres not stated), the pEC50 in data set [1] was 4.92; in data set [2], 5.17; in data set [7] it was 4.52; in [8], 4.61. The cytotoxic concentration (CC50) in [3] was greater than 140 µM; in data set [4], greater than 140 µM; in data set [9], 64.3 µM; in [10], 72.4 µM. Besides, the selectivity ratio was greater than 11 in data set [5] and greater than 27 in data set [6]. Also, the pKd in data set [11] is 4.84; in data set [12], 4.92; in [15] it was 4.17; in data set [18] it was 4.19. Further, the pIC50 was 5.09 in [13] and 5.25 in data set [14]. The same molecule showed an inhibition in vivo at 100 µM in data set [16] of less than 50%. For the same molecule, the inhibition at 10 µM in data set [17] came out at 87.7%.

`C=C1CC[C@H]2[C@@](C)(CCC[C@]2(C)C(=O)O)[C@@H]1C/C=C(\C)[C@@H]1CCc2c(O)c(CC3C(=O)C(C(C)=O)=C(O)C(C)(C)C3O)c(O)c(C(=O)CCC)c2O1` (some centres not stated): the negative logarithm of the EC50 (pEC50) in [1] is 5.35; in data set [19] it was 5.17; in data set [7], 4.69; in data set [22] it was 4.61. Besides, the cytotoxic concentration (CC50) in data set [3] is greater than 140 µM; in data set [20], greater than 140 µM; in data set [9], 98.6 µM; in data set [23] it was 72.4 µM. The selectivity ratio in data set [5] is greater than 35; in [21], greater than 27. The pKd in data set [11] is 4.78; in [24], 4.92; in data set [15], 4.04; in [27], 4.19. The negative logarithm of the IC50 (pIC50) in data set [13] is 5.12; in data set [25], 5.25. Moreover, the inhibition in vivo at 100 µM in data set [16] was less than 50%. Further, the inhibition at 10 µM in data set [26] was determined as 87.7%.

On to `C=C1CC[C@H]2[C@@](C)(CCC[C@]2(C)C(=O)O)[C@@H]1C/C=C(\C)[C@H]1CCC2=C(O1)C(C)(C)C(O)=C(C(C)=O)C2=O`, for which the inhibition at 10 µM in [28] was 51.7%.
